Reference: PubChem BioAssay (NCI)
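Where inhibition never reached the appropriate level, the endpoint shown equals the highest concentration tested. Otherwise, values were interpolated linearly from a five-concentration, 48-hour dose response in 96-well plates. GI50 is the concentration that inhibits growth by half. TGI marks complete inhibition of growth.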

Legend:
Assay in all cases: growth of human tumour cells (NCI), 48 h
[1] = test system: 786-0 renal
[2] = test system: A498 renal
[3] = test system: A549 NSCLC
[4] = test system: CCRF-CEM leukemia
[5] = test system: DU-145 prostate
[6] = test system: EKVX NSCLC
[7] = test system: HCT-116 colon
[8] = test system: HOP-62 NSCLC
[9] = test system: HOP-92 NSCLC
[10] = test system: HS 578T breast
[11] = test system: HT29 colon
[12] = test system: IGROV1 ovarian
[13] = test system: K-562 leukemia
[14] = test system: LOX IMVI melanoma
[15] = test system: M14 melanoma
[16] = test system: MALME-3M melanoma
[17] = test system: MOLT-4 leukemia
[18] = test system: NCI-H226 lung
[19] = test system: NCI-H23 lung
[20] = test system: NCI-H460 lung
[21] = test system: NCI/ADR-RES ovarian
[22] = test system: OVCAR-3 ovarian
[23] = test system: OVCAR-4 ovarian
[24] = test system: OVCAR-5 ovarian
[25] = test system: OVCAR-8 ovarian
[26] = test system: RPMI-8226 leukemia
[27] = test system: SF-295 CNS
[28] = test system: SK-MEL-28 melanoma
[29] = test system: SK-MEL-5 melanoma
[30] = test system: SNB-19 CNS
[31] = test system: SR leukemia
[32] = test system: SW-620 colon
[33] = test system: UACC-257 melanoma
[34] = test system: ACHN renal
[35] = test system: CAKI-1 renal
[36] = test system: HCT-15 colon
[37] = test system: HL-60(TB) leukemia
[38] = test system: KM12 colon
[39] = test system: MDA-MB-435
[40] = test system: NCI-H522 lung
[41] = test system: SK-OV-3 ovarian
[42] = test system: T-47D breast
[43] = test system: TK-10 renal
[44] = test system: UO-31 renal

## O=c1c2ccccc2nc2n1CCc1c-2[nH]c2ccc(Br)cc12
[1]
  TGI: > 100 µM
[2]
  TGI: > 100 µM
[3]
  TGI: > 100 µM
[4]
  TGI: > 100 µM
[5]
  TGI: > 100 µM
[6]
  TGI: > 100 µM
[7]
  TGI: > 100 µM
[8]
  TGI: > 100 µM
[9]
  TGI: > 100 µM
[10]
  TGI: > 100 µM
[11]
  TGI: > 100 µM
[12]
  TGI: > 100 µM
[13]
  TGI: > 100 µM
[14]
  TGI: > 100 µM
[15]
  TGI: > 100 µM
[16]
  TGI: > 100 µM
[17]
  TGI: > 100 µM
[18]
  TGI: > 100 µM
[19]
  TGI: > 100 µM
[20]
  TGI: > 100 µM
[21]
  TGI: > 100 µM
[22]
  TGI: > 100 µM
[23]
  TGI: > 100 µM
[24]
  TGI: > 100 µM
[25]
  TGI: > 100 µM
[26]
  TGI: > 100 µM
[27]
  TGI: > 100 µM
[28]
  TGI: > 100 µM
[29]
  TGI: > 100 µM
[30]
  TGI: > 100 µM
[31]
  TGI: > 100 µM
[32]
  TGI: > 100 µM
[33]
  TGI: > 100 µM

## COc1cc(C(=O)/C=C/c2ccc(OCCCCCC[P+](c3ccccc3)(c3ccccc3)c3ccccc3)cc2)cc(OC)c1OC
[2]
  GI50: 0.71 µM
  TGI: 1.97 µM
[34]
  GI50: 1.5 µM
  TGI: 2.82 µM
[35]
  GI50: 1.64 µM
  TGI: 2.99 µM
[4]
  GI50: 0.557 µM
  TGI: 3.09 µM
[5]
  GI50: 0.698 µM
  TGI: 1.96 µM
[36]
  GI50: 1.6 µM
  TGI: 3.13 µM
[37]
  GI50: 0.227 µM
  TGI: 0.643 µM
[38]
  GI50: 0.355 µM
  TGI: 1.31 µM
[15]
  GI50: 0.971 µM
  TGI: 3.18 µM
[39]
  GI50: 0.337 µM
  TGI: 1.14 µM
[17]
  GI50: 0.559 µM
  TGI: 3 µM
[40]
  GI50: 0.342 µM
  TGI: 2.09 µM
[21]
  GI50: 3.58 µM
  TGI: > 100 µM
[22]
  GI50: 0.347 µM
  TGI: 1.16 µM
[23]
  GI50: 0.374 µM
  TGI: 1.48 µM
[24]
  GI50: 0.754 µM
  TGI: 2.1 µM
[26]
  GI50: 0.214 µM
  TGI: 0.703 µM
[41]
  GI50: 1.32 µM
  TGI: 2.7 µM
[30]
  GI50: 0.341 µM
  TGI: 1.31 µM
[32]
  GI50: 0.358 µM
  TGI: 1.36 µM
[42]
  GI50: 0.261 µM
  TGI: 1.77 µM
[43]
  GI50: 1.34 µM
  TGI: 2.81 µM
[33]
  GI50: 0.298 µM
  TGI: 1.26 µM
[44]
  GI50: 1.46 µM
  TGI: 2.78 µM
